Experiments:
LAMP reaction = test: LAMP amplification activity in the presence of lytic agents / lytic peptides; format: biochemical; conditions: for inhibiting effect on the LAMP amplification efficiency: 5 μM antimicrobial peptide in LAMP reaction
Procedure: Loop-mediated isothermal amplification activity in the presence of different lytic agents. Percentage of amplification activity in the presence of 0.1% polyethylene glycol p-(1,1,3,3-tetramethylbutyl)-phenyl ether, 0.1 mg/ml lysozyme (with or without 0.1% polyethylene glycol p-(1,1,3,3-tetramethylbutyl)-phenyl ether or 1 mM EDTA) or alkaline lysis components.
Loop-mediated isothermal amplification activity in the presence of different lytic peptides. Percentage of amplification activity in the presence of 5 μM antimicrobial peptides.

E. coli = test: Loop-mediated isothermal amplification directly from E. coli cell lysates after pretreatment of urine spiked E. coli; format: cell-based, Escherichia coli
Procedure: Loop-mediated isothermal amplification directly from E. coli cell lysates. Isothermal amplification after pretreatment of urine spiked E. coli with different lysate preparation techniques. Lysozyme was used at 1 mg/ml concentration, polyethylene glycol p-(1,1,3,3-tetramethylbutyl)-phenyl ether at 1% and peptides at 50 μM concentration for the biological sample treatment. All sample pretreatments were performed for 5 min at RT° C. (except for heat treatment that was incubated at 95° C.).
A biological sample containing E. coli bacteria (urine sample in FIG. 6) is treated with 50 μM antimicrobial peptide belonging to but not limited to cecropin group (Cecropin P1 or SB-37 in FIG. 6) for 5 min at RT° C. 5 μl of the urine sample is added directly to the loop-mediated amplification reaction, so that final reaction volume is 50 μl and final components concentration as follows: 0.2 μM F3 primer, 0.2 μM B3 primer, 1.6 μM BIP primer, 1.6 μM FIP primer, 0.8 μM LF primer, 0.8 μM LB primer, 8 mM MgSO4, 1.4 mM dNTP, 0.8M betain, 20 mM Tris-HCl pH 8.8, 10 mM KCl, 10 mM (NH4)2SO4, 0.1% (v/v) Tween 20 and 16 units of Bsm polymerase.

Row | Molecule | inhibiting effect on the LAMP amplification efficiency (LAMP reaction) | further results
1 | MSI-594 | quite severe inhibiting effect | 
2 | lysozyme |  | effect on the amplification efficiency (LAMP reaction; lysozyme alone, 0.1 mg/ml in LAMP reaction): very modest effect; isothermal amplification efficiency (LAMP reaction; lysozyme in combination with lysis enhancing agents (polyethylene glycol p-(1,1,3,3-tetramethylbutyl)-phenyl ether or EDTA)): significantly reduced
3 | Bombolitin III | only mild inhibition | 
4 | CC[C@H](C)[C@H](NC(=O)CN)C(=O)NCC(=O)N[C@@H](C)C(=O)N[C@H](C(=O)N[C@@H](CC(C)C)C(=O)N[C@@H](CCCCN)C(=O)N[C@H](C(=O)N[C@@H](CC(C)C)C(=O)N[C@H](C(=O)N[C@H](C(=O)NCC(=O)N[C@@H](CC(C)C)C(=O)N1CCC[C@H]1C(=O)N[C@@H](C)C(=O)N[C@@H](CC(C)C)C(=O)N[C@H](C(=O)N[C@@H](CO)C(=O)N[C@@H](Cc1c[nH]c2ccccc12)C(=O)N[C@H](C(=O)N[C@@H](CCCCN)C(=O)N[C@@H](CCCNC(=N)N)C(=O)N[C@@H](CCCCN)C(=O)N[C@@H](CCCNC(=N)N)C(=O)N[C@@H](CCC(N)=O)C(=O)N[C@@H](CCC(N)=O)C(N)=O)[C@@H](C)CC)[C@@H](C)CC)[C@@H](C)O)[C@@H](C)O)C(C)C)C(C)C [melittin] | inhibiting effect comparable to alkaline lysis components | 
5 | MSI-78 | quite severe inhibiting effect | 
6 | Cecropin P1 (SWLSKTAKKLENSAKKRISEGIAIAIQGGPR; listed as Ascaris suum) | lowest inhibitory effect | increase of the target DNA available for the isothermal amplification (E. coli; 50 μM peptide, 5 min at RT, urine spiked E. coli, LAMP (FIG. 6)): 6 times; effect of sample pre-treatment on isothermal amplification efficiency (E. coli; urine sample, peptide pre-treatment (FIG. 6)): enhancing effect; inhibiting effect on the LAMP amplification efficiency (LAMP reaction; listed as P1): only mild inhibition

Source: patent US20230160021A1, “METHOD FOR THE DETECTION OF A SEXUALLY TRANSMITTED INFECTIOUS PATHOGEN” (SELFDIAGNOSTICS DEUTSCHLAND GMBH, priority 2016, published 2023)
